Measured values taken from ChEMBL document CHEMBL1201862, “PubChem BioAssay data set” (2004).
Values belong to the compound of their own block, whether it stands above or below them. Active and inactive are the calls of the source.

What was measured:
[1] = molecular target: NAD-dependent protein deacylase sirtuin-5, mitochondrial (Homo sapiens, UniProt Q9NXA8); experiment: SIRT5 desuccinylase inhibitors, dose response, biochemical, fluorescence imaging, cherry-pick, set 5 (AID 720591);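 note: desuccinylation of succinyl peptide AMC substrate read as fluorescence after trypsin release; potency of inhibitors that lower fluorescence and may act on trypsin instead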
[2] = molecular target: Induced myeloid leukemia cell differentiation protein Mcl-1 (Homo sapiens, UniProt Q07820); assay type: functional
Sequence of Induced myeloid leukemia cell differentiation protein Mcl-1 (Q07820 whole entry): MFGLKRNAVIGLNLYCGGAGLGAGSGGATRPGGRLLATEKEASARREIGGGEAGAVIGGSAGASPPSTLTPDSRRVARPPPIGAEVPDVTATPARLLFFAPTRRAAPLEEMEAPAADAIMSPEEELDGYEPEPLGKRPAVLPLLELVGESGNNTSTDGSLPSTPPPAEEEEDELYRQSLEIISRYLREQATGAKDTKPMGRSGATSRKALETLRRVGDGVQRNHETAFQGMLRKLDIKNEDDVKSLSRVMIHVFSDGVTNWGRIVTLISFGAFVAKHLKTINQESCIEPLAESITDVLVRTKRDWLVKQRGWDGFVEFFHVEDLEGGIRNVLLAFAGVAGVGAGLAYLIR

[3] = molecular target: Eukaryotic translation initiation factor 4E (Mus musculus, UniProt P63073); experiment: eIF4E–eIF4G protein interaction inhibitors, dose response, biochemical, TR-FRET (AID 855); assay type: functional;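 note: potency for disrupting eIF4E binding to eIF4GI seen as loss of FRET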
[4] = ADAM10 inhibitors, peptide cleavage, dose response, biochemical, QFRET (AID 743254);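 note: ADAM10 enzyme with the DM2 quenched FRET peptide as substrate; EDANS fluorescence gain as the protease cuts the substrate; inhibitor potency against ADAM10 proteolytic activity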
[5] = molecular target: Disintegrin and metalloproteinase domain-containing protein 17 (Homo sapiens, UniProt P78536); experiment: ADAM17 protease inhibitors, dose response, counter-screen for ADAM10 exosite inhibitor project, biochemical, quenched FRET substrate (AID 743253)
cells = conditions: HEK293
[6] = molecular target: T1, DNA repair protein RAD52 homolog (Homo sapiens, UniProt P43351); assay type: functional, biochemical
T1 sequence (P43351 whole entry): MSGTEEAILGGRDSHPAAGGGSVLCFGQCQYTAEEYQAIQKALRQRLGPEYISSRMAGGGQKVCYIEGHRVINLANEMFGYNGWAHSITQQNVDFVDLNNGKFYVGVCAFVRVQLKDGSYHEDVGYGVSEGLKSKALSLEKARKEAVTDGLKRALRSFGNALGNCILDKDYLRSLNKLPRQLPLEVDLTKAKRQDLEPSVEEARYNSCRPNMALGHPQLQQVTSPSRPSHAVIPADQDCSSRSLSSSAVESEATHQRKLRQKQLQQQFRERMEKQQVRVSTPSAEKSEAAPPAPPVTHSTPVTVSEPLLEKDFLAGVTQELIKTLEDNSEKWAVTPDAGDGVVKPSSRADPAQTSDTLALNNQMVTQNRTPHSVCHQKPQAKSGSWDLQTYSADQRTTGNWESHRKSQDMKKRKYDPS

[7] = molecular target: COUP transcription factor 2 (Homo sapiens, UniProt P24468); experiment: Luminescence-based cell-based high throughput dose response assay to identify inhibitors of COUP-TFII (NR2F2).; assay type: functional;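 note: HEK293 cells transiently cotransfected with COUP-TFII expression vector and reporter; luciferase reporter luminescence driven by COUP-TFII from the pX2-168 reporter plasmid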
Sequence of COUP transcription factor 2 (P24468 whole entry): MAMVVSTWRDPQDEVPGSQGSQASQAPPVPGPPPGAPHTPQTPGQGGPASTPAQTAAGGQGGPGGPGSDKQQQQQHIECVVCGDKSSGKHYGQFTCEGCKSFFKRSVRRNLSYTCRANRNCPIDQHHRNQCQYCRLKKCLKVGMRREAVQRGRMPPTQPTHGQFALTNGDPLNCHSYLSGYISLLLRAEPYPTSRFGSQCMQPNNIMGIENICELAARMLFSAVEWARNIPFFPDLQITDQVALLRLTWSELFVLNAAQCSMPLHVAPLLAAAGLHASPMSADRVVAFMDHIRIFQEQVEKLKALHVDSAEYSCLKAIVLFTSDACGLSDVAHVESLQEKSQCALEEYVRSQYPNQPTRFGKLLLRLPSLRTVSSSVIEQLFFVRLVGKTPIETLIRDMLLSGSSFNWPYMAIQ

Large T antigen = Large T antigen (Simian virus 40, UniProt P03070); assay type: functional, Betapolyomavirus macacae;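 note: Confirmatory-stage PubChem screen for compounds that inhibit SV40 T antigen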
Sequence of Large T antigen (P03070 whole entry): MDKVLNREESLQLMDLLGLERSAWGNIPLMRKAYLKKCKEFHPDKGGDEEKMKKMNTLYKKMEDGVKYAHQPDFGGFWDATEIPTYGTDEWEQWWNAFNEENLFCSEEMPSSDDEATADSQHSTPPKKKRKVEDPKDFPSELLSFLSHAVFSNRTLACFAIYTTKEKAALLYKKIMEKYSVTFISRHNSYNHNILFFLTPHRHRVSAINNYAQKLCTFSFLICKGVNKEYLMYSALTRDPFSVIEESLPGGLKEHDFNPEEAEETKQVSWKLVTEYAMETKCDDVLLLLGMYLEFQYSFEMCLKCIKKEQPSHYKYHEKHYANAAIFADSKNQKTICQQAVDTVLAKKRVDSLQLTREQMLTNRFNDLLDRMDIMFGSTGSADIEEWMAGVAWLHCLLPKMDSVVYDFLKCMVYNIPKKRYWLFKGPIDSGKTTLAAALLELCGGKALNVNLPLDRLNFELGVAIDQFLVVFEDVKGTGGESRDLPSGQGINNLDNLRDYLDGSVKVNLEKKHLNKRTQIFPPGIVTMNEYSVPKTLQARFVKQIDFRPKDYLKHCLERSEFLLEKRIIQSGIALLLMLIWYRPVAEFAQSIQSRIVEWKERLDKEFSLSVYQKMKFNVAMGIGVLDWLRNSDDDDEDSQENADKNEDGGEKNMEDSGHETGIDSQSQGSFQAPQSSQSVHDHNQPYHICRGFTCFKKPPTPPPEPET

[8] = molecular target: T2, Intestinal-type alkaline phosphatase (Homo sapiens, UniProt P09923); experiment: activation of human intestinal alkaline phosphatase – biochemical, dose response (AID 488873); assay type: functional
T2 sequence (P09923 whole entry): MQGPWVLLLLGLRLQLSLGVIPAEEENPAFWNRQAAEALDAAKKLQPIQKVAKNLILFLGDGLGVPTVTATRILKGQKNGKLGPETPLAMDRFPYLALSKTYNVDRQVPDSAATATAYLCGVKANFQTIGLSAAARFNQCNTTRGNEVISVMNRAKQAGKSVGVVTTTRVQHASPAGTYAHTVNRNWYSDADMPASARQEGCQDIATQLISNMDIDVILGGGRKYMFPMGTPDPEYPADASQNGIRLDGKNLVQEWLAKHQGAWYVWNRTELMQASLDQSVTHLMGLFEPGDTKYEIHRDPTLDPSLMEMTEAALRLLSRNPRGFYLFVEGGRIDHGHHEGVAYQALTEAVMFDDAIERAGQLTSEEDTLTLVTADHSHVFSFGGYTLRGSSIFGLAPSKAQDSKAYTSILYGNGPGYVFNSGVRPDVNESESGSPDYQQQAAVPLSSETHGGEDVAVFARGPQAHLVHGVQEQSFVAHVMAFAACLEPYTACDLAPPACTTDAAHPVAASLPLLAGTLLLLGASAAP

[9] = molecular target: Intestinal-type alkaline phosphatase (Mus musculus, UniProt P24822); experiment: PubChem AID 488785; assay type: functional
Sequence of Intestinal-type alkaline phosphatase (Mus musculus, UniProt P24822) (P24822 whole entry): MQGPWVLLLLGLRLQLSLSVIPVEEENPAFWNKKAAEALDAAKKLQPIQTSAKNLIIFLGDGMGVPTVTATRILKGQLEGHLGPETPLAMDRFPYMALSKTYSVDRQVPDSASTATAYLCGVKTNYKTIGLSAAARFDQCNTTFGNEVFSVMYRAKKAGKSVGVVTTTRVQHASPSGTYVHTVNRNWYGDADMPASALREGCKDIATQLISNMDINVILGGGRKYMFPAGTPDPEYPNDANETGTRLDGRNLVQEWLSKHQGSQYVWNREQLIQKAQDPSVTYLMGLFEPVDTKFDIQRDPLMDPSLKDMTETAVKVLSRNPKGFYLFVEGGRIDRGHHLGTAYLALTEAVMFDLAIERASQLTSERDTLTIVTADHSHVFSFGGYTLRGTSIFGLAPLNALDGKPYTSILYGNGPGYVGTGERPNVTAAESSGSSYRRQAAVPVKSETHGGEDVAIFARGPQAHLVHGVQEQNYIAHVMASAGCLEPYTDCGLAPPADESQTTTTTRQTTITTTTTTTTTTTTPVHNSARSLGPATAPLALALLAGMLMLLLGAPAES

[10] = molecular target: T3, Alkaline phosphatase, tissue-nonspecific isozyme (Homo sapiens, UniProt P05186); experiment: TNAP enzyme inhibition by screening hits, dose response, selectivity assay for mouse IAP inhibitor project, biochemical, human TNAP, uHTS hits (AID 488906); assay type: functional
T3 sequence (P05186 whole entry): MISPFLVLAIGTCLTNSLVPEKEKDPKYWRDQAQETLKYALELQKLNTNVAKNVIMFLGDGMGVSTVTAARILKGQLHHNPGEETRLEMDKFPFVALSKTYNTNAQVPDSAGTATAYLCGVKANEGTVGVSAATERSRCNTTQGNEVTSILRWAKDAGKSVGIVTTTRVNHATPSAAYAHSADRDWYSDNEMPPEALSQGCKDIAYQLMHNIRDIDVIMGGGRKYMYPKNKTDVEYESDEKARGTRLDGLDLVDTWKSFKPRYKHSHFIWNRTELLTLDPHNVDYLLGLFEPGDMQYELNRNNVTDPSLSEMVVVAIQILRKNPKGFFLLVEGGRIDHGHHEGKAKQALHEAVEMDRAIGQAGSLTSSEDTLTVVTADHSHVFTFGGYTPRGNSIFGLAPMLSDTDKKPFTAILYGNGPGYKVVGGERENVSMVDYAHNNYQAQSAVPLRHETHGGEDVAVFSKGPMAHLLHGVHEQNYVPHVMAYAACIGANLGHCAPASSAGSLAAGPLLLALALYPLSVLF

[11] = molecular target: Ras and Rab interactor 1/Tyrosine-protein kinase ABL1 (Homo sapiens, UniProt P00519+Q13671); assay type: functional;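 note: biochemical TR-FRET dose-response test measuring inhibition of binding between Rin1 and Abl proteins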
Sequence of Ras and Rab interactor 1/Tyrosine-protein kinase ABL1 (P00519 whole entry): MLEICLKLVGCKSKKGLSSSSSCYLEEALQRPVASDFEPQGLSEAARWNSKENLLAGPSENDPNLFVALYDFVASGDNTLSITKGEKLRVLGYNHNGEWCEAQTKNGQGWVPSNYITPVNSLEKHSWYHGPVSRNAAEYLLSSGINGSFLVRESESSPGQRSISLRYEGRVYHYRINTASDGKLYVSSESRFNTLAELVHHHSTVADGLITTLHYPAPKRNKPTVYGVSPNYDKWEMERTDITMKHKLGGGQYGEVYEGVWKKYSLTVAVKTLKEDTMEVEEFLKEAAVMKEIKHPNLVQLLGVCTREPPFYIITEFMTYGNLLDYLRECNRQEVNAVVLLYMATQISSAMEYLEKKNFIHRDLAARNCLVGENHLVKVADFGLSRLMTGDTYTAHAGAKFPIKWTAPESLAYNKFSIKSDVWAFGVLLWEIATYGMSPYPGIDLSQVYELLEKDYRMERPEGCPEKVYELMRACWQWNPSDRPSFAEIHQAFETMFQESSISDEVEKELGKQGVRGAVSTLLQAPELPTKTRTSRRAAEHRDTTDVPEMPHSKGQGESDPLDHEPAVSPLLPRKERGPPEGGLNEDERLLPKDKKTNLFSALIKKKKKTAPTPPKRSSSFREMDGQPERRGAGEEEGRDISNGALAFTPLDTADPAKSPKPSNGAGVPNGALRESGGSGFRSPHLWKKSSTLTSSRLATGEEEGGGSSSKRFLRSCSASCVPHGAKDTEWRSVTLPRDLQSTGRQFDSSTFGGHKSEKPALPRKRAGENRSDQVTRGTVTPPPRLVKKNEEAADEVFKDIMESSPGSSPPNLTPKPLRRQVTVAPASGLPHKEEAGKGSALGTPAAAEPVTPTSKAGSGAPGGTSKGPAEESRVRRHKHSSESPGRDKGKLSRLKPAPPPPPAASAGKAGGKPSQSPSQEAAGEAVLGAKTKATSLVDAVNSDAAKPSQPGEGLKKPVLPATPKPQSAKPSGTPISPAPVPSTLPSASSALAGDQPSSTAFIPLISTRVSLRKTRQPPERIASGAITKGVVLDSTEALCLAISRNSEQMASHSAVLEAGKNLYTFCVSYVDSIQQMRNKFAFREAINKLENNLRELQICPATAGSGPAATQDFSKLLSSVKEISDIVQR
Sequence of Ras and Rab interactor 1/Tyrosine-protein kinase ABL1 (Q13671 whole entry): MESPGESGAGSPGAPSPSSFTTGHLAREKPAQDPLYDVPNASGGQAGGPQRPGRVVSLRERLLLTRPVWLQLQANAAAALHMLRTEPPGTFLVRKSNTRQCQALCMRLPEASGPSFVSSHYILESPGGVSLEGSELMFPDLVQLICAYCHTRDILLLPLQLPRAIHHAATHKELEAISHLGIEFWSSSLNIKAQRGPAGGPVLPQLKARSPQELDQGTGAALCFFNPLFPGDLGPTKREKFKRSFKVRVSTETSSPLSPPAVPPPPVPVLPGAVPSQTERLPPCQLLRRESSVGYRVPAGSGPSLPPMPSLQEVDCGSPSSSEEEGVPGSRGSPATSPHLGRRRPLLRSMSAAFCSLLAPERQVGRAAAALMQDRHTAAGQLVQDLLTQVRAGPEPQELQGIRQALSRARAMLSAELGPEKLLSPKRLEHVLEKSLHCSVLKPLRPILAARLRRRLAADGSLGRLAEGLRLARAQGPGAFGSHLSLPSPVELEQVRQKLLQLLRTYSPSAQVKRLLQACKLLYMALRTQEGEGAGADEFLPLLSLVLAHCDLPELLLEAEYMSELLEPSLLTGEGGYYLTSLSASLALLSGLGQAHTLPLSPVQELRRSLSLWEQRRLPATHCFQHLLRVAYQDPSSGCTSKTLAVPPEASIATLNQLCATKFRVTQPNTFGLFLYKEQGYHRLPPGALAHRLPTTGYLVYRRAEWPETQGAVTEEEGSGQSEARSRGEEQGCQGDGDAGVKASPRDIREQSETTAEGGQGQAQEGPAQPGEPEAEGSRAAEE

Caspase-6 = molecular target: T4, Caspase-6 (Homo sapiens, UniProt P55212); experiment: human caspase-6 inhibitors, dose response, biochemical, VEID-R110 fluorescence, cherry-pick (AID 720632)
T4 sequence (P55212 whole entry): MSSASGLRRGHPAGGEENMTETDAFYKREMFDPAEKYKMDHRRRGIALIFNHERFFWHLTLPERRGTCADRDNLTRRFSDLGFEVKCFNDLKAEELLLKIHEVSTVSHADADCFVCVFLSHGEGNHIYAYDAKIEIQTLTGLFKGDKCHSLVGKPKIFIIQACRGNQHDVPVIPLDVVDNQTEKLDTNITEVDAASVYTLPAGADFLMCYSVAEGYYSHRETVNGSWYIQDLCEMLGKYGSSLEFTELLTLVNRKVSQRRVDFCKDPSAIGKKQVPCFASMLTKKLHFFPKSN

Caspase-7 = Caspase-7 (Homo sapiens, UniProt P55210); experiment: human caspase-7 inhibitors, dose response, selectivity assay for caspase-6 inhibitor project, biochemical, DEVD-R110 fluorescence, cherry-pick (AID 743295)
Sequence of Caspase-7 (P55210 24-198 limits assumed): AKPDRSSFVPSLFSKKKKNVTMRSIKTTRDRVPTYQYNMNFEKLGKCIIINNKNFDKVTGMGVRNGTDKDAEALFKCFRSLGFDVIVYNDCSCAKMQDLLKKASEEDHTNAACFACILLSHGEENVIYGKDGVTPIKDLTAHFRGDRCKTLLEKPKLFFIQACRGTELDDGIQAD
Sequence of Caspase-7 (P55210 207-303 limits assumed): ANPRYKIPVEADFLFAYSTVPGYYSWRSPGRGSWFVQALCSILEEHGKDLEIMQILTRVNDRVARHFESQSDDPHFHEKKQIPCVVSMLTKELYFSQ

Caspase-3 = molecular target: T5, Caspase-3 (Homo sapiens, UniProt P42574); experiment: caspase-3 enzyme inhibitors, selectivity check, dose response, selectivity assay for caspase-6 allosteric inhibitor project, biochemical, fluorescence, cherry-picked samples (AID 743291)
T5 sequence (P42574 whole entry): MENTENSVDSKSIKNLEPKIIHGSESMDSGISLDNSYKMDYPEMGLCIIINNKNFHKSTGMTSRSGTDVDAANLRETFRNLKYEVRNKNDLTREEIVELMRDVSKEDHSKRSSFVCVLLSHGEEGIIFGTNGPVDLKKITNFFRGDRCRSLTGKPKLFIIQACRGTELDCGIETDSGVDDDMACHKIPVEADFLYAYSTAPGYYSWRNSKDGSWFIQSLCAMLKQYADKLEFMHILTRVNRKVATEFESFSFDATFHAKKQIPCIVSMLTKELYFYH

[12] = molecular target: T2, Intestinal-type alkaline phosphatase; experiment: inhibition of human intestinal alkaline phosphatase – biochemical, dose response (AID 488876); assay type: functional
[13] = molecular target: T6, Small ubiquitin-related modifier 2 (Homo sapiens, UniProt P61956); experiment: SUMO2–SIM peptide binding inhibitors, dose response, selectivity assay for SUMO1 interaction inhibitor project, biochemical, fluorescence polarization, uHTS hits (AID 624385); assay type: functional; conditions: read-out: IC50_Mean
T6 sequence (P61956 whole entry): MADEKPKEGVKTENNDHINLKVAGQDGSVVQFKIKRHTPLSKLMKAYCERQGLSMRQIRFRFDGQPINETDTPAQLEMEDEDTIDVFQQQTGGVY

[14] = molecular target: T7, Small ubiquitin-related modifier 1 (Homo sapiens, UniProt P63165); experiment: inhibitors of SUMO1 peptide binding, dose response, biochemical, fluorescence polarization, uHTS hits (AID 624382); assay type: functional; conditions: read-out: IC50_Mean
T7 sequence (P63165 whole entry): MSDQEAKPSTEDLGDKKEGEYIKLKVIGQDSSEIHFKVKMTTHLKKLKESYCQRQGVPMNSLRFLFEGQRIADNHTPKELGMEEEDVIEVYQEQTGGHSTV

[15] = molecular target: T6, Small ubiquitin-related modifier 2; experiment: inhibitors of SUMO2 protein-protein interaction, dose response, selectivity assay for SUMO1 interaction inhibitor project, biochemical, FRET, human SUMO2, uHTS hits (AID 624384); assay type: functional; conditions: read-out: IC50_Mean
[16] = molecular target: T7, Small ubiquitin-related modifier 1; experiment: inhibitors of SUMO1 partner interactions, dose response, biochemical, FRET (AID 624383); assay type: functional; conditions: read-out: IC50_Mean
[17] = molecular target: T8, Rac GTPase-activating protein 1 (Homo sapiens, UniProt Q9H0H5); experiment: MgcRacGAP GTPase-activating activity inhibitors, confirmation, biochemical, ADP Hunter fluorescence, primary and confirmatory (AID 624330); assay type: functional
T8 sequence (Q9H0H5 whole entry): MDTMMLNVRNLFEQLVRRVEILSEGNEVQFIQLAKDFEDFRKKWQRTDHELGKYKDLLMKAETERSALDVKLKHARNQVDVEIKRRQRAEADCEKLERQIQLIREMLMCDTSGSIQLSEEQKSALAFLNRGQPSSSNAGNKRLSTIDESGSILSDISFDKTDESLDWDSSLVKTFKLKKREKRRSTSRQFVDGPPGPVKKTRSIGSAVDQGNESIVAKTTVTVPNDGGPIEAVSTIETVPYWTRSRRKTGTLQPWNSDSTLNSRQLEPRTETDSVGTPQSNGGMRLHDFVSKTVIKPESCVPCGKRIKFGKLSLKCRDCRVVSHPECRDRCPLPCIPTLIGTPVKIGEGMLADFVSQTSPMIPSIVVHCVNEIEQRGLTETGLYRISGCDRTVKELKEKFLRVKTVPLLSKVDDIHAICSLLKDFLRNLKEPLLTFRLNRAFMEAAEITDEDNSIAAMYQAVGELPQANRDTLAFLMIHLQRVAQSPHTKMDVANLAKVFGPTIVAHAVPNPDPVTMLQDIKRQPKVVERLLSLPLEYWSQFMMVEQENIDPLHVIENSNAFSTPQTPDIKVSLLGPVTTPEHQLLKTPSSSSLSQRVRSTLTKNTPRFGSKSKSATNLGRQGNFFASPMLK

[18] = molecular target: T9, Histone-lysine N-methyltransferase NSD2 (Homo sapiens, UniProt O96028); assay type: biochemical
T9 sequence (O96028 whole entry): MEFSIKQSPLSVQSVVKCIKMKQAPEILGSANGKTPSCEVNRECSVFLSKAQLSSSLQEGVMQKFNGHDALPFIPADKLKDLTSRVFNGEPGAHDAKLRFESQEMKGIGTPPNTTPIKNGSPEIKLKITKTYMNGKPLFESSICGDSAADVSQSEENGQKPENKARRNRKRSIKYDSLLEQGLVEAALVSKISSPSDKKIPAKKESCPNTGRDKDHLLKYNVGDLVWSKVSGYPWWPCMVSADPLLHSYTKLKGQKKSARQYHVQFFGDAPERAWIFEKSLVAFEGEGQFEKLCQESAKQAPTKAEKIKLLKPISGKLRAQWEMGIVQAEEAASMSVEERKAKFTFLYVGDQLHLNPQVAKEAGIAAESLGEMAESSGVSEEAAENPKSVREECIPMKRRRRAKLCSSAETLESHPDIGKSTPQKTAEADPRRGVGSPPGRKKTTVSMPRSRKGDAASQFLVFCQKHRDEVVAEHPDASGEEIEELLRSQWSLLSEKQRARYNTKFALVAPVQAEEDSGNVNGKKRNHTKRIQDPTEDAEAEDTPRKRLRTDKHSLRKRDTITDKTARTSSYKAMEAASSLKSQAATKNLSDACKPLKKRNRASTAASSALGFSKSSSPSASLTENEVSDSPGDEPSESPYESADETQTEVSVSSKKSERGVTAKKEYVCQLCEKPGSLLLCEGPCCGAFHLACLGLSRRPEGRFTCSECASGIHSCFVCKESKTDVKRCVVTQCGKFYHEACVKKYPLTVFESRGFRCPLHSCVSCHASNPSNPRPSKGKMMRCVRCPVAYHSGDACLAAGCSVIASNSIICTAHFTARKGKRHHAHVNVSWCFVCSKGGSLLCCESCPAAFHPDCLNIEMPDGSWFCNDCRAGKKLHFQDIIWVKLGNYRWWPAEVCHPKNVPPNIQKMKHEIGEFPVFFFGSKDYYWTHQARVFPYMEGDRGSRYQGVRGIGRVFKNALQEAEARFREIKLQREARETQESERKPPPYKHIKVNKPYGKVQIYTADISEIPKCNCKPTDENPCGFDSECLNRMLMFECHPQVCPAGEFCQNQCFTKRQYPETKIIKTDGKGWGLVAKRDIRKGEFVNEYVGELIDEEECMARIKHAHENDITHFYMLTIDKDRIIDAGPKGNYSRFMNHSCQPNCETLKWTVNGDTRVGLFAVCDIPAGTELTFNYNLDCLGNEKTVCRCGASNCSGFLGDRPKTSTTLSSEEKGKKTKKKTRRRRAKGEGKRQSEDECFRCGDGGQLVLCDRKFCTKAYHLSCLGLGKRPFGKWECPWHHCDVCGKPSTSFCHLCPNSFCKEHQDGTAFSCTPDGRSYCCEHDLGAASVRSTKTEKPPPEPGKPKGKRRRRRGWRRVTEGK

Caspase-8 = Caspase-8 (Homo sapiens, UniProt Q14790); experiment: caspase-8 inhibition counter-screen, dose response, selectivity assay for caspase-6 inhibitor project, biochemical, Z-IETD-R110 fluorescence, cherry-picked samples (AID 743294)
[19] = HepG2 cell cytotoxicity, dose response, cytotoxicity control, ATP luminescence, cherry-pick, set 6 (AID 1053125); assay type: functional, cell-based

AC50 [1]: > 30 µM (inactive)
Structure (SMILES): O=C(Cn1nc(-c2ccc(Cl)cc2)ccc1=O)NCC1COCCO1 (stereo not given)

IC50 [2]: 4.76 µM (not active)
IC50 [3]: 50 µM (inactive)
IC50 [4]: 4.72 µM (active)
IC50 [5]: 20 µM (inactive)
Structure (SMILES): Oc1cc2c(cc1C(c1ccc(Cl)c(Cl)c1)N1CCCC1)OCO2 (stereo not given)

Structure (SMILES): C1CCNCC1.N#CC1=C(N)Oc2cc(O)ccc2C1c1ccc2c(c1)OCO2 (stereo not given)
AC50 (cells): > 52 µM (inactive)

AC50 [6]: 1.07 µM (active)
IC50 [7]: 5.24 µM (active)
Structure (SMILES): NC(S)=NN=C1c2cc(OCCN3CCOCC3)ccc2-c2ccc(OCCN3CCOCC3)cc21

IC50 (Large T antigen): 28.8 µM (active)
IC50 [2]: 5.16 µM (active)
EC50 [8]: 11.3 µM (active)
IC50 [9]: > 100 µM (inactive)
IC50 [10]: > 100 µM (inactive)
IC50 [11]: 11.9 µM (inactive)
AC50 (Caspase-6): 1.32 µM (active)
AC50 (Caspase-7): 9.65 µM (active)
AC50 (Caspase-3): 31.7 µM (active)
Structure (SMILES): O=C(CCO)c1ccc(O)cc1

Structure (SMILES): O=C(COC(=O)c1ccccc1)Nc1ncc([N+](=O)[O-])s1
IC50 [9]: < 0.195 µM (active)
IC50 [10]: 1.06 µM (active)
IC50 [12]: 80.6 µM (active)
IC50 [13]: 14.7 µM (active)
IC50 [14]: 9.39 µM (active)
IC50 [15]: > 66 µM (inactive)
IC50 [16]: 51.7 µM (inactive)
IC50 [17]: 50.2 µM (active)
AC50 (Caspase-6): 0.951 µM (active)
AC50 [18]: 2.74 µM (active)
AC50 (Caspase-7): 16.3 µM (active)
AC50 (Caspase-8): 61.3 µM (active)

Structure (SMILES): CCOC(=O)c1cc2c(=O)n3ccccc3nc2n(C(C)C)/c1=N/C(=O)c1ccco1
AC50 [19]: > 52 µM (inactive)
